From article PMC12689286, “Enhanced therapeutics of cabazitaxel via polycarboxylate conjugation: improved solubility, safety, and antitumor efficacy” (Frontiers in Immunology, 2025) come the findings set out here.

Some results are limits rather than exact numbers.

In one series the test system is Fadu. The series is described as follows: MTS cytotoxicity, Fadu. The class given is cell-based. As to conditions: Homo sapiens. As to the method: (§1) Human cancer cell lines were cultured in basic medium (10% fetal bovine serum (FBS)+1% double antibody solution) (Biological Industries) at 37°C in a 5% CO2 incubator. Effects of CTXs on cell proliferation and viability were measured by an MTS (Promega Corporation) assay. Absorbance values at 490 nm were measured using a microplate reader (Thermo Scientific, Varioskan Flash) ([22]).

Another series is described as follows: Hemolysis test. In kind it is cell-based, SD rats. As to conditions: SD, rat, rat red blood cells, 2% (v/v) suspension, 37 °C, 1.5 h. The protocol:
The hemolytic potential of CTX formulations was evaluated using rat red blood cells (RBCs). Briefly, whole blood was collected from the abdominal aorta of anesthetized SD rats into ACD anticoagulant (blood:ACD = 1:4, v/v). The blood was diluted with normal saline (4:5, v/v) and centrifuged at 450 g for 10 min. The RBC pellet was washed three times with normal saline until the supernatant was clear. The washed RBCs were then resuspended in normal saline to prepare a 2% (v/v) suspension.
For the assay, 500 μL of the 2% RBC suspension was mixed with an equal volume of serially diluted drugs or controls in 1.5 mL tubes. The controls included: Negative control (0% hemolysis): normal saline. Positive control (100% hemolysis): distilled water. Solvent control: the vehicle for unmodified CTX (2.5% Tween 80 + 2.5% anhydrous ethanol + 95% normal saline). The mixtures were incubated at 37 °C for 1.5 h and then centrifuged at 450 g for 5 min. Subsequently, 150 μL of the supernatant from each tube was transferred to a 96-well plate, and the absorbance at 545 nm (OD545) was measured using a microplate reader. The percentage of hemolysis was calculated using the following formula: Hemolysis (%) = [(ODsample - ODnegative control)/(ODpositive control - ODnegative control)] × 100.

Another series relates to SK-OV-3. The series is described as follows: MTS cytotoxicity, SK-OV-3. As to conditions: Homo sapiens; SK-OV-3, MTS. In kind it is cell-based. As to the method: as §1
For another series, the system named is L-02. The series is described as follows: MTS cytotoxicity, L-02 (non-tumor). The class given is cell-based. As to conditions: Homo sapiens, L02, L-02 non-tumor cell line. The protocol:
as §1

The next series has as its system MCF-7 xenografts. The series is described as follows: MCF-7 breast cancer xenograft, tumor volume. The class given is in vivo, BALB/c nude mice. As to conditions: MCF-7 xenograft, 9.6 μmol/kg. The protocol: All animal experiments were conducted in accordance with protocols approved by the Institutional Animal Care and Use Committee of Peking Union Medical College. Male BALB/c nude mice (6–8 weeks old) and female KM mice (6–8 weeks old) were purchased from Charles River Laboratories (Beijing, China) and maintained under specific pathogen-free conditions.
MCF-7 Breast Cancer Model: Female BALB/c nude mice bearing MCF-7 xenografts (2×10^6 cells/mouse) were randomized into treatment groups as described above, with an adjusted dose of 9.6 μmol/kg for all CTX formulations.

A further series has as its system HCT 116. The series is described as follows: MTS cytotoxicity, HCT 116. The class given is cell-based. As to conditions: Homo sapiens; HCT 116, MTS. The protocol: as §1
For another series, the system named is H520. The series is described as follows: MTS cytotoxicity, H520. In kind it is cell-based. As to conditions: Homo sapiens, NCI-H520. The protocol:
as §1

The subject of a further series is HT-29. The series is described as follows: MTS cytotoxicity, HT-29. The class given is cell-based. As to conditions: Homo sapiens; HT-29, MTS. The protocol:
as §1

In the next series the test system is A549. The series is described as follows: MTS cytotoxicity, A549. The class given is cell-based. As to conditions: Homo sapiens. The protocol: as §1
The next series concerns H460. The series is described as follows: MTS cytotoxicity, H460. As to conditions: Homo sapiens, NCI-H460. In kind it is cell-based. As to the method: as §1
Another series has as its system PC-3. The series is described as follows: MTS cytotoxicity, PC-3. The class given is cell-based. As to conditions: Homo sapiens; PC-3, MTS. As to the method:
as §1

The test system of another series is DU145 cells. The series is described as follows: Cell cycle arrest (PI, flow cytometry). As to conditions: 24 h. In kind it is cell-based, human. As to the method: Cells were incubated with drugs for 24 h. Fixed cells were incubated with RNase A and stained with propidium iodide (PI). DNA content was determined in a flow cytometer (BD FACS CaliburTM Flow Cytometer, USA) ([23]).
(Flow cytometry measures light scatter and fluorescence of single cells or particles in a stream.)

In a further series the test system is MCF-7. The series is described as follows: MTS cytotoxicity, MCF-7. In kind it is cell-based. As to conditions: Homo sapiens, MCF7; MCF-7, MTS. As to the method: as §1
Series [1] concerns H22 hepatocellular carcinoma tumors. The series is described as follows: H22 hepatoma model, tumor growth inhibition. In kind it is in vivo, KM mice. As to conditions: every other day. The protocol: (§2) H22 hepatoma model: Female KM mice were subcutaneously implanted with H22 cells (2×10^6 cells/mouse) and assigned to six groups: (a) Vehicle control; (b) CTX (9.6 μmol/kg in 5% glucose with 2.5% ethanol/2.5% Tween 80); (c) CTX-TTHA (9.6 μmol/kg in saline); (d) CTX-DTPA (9.6 μmol/kg in saline); (e) CTX-TTHA (19.1 μmol/kg in saline); (f) CTX-DTPA (19.1 μmol/kg in saline).
(§3) Treatments were administered every other day for four doses (three doses for CTX group due to weight loss >15%). Peripheral blood samples were collected for complete blood count analysis using an automated hematology analyzer.

Another series in a line: Excretion (urine, feces). As to conditions: SD rats, 6 μmol/kg iv. The class given is in vivo.
A short description of series [2]: Systemic toxicity in H22 tumor-bearing mice (body weight, blood count). In kind it is in vivo, KM mice. As to the method: as §2, §3
The subject of another series is DU145. The series is described as follows: MTS cytotoxicity, DU145. The class given is cell-based. As to conditions: Homo sapiens, DU-145. The protocol:
as §1

Method for Excretion (urine, feces): Male and female SD rats (200–220 g) received intravenous injections of CTX or CTX-DTPA (6 μmol/kg). […] Blood samples were collected at 5 min to 24 h post-dose. Tissues (heart, liver, spleen, lung, kidney, thymus) and excreta were collected at 15 min, 2 h, 4 h, and 12 h. Plasma and tissue samples were processed by liquid-liquid extraction with n-butanol and analyzed via LC-MS/MS (Agilent Poroshell 120 EC-C18 column; 0.05% formic acid/acetonitrile gradient). Pharmacokinetic parameters were calculated using DAS 2.0 via non-compartmental analysis.

Regarding `CO[C@H]1C(=O)[C@]2(C)[C@@H](OC)C[C@H]3OC[C@@]3(OC(C)=O)[C@H]2[C@H](OC(=O)c2ccccc2)[C@]2(O)C[C@H](OC(=O)[C@H](O)[C@@H](NC(=O)OC(C)(C)C)c3ccccc3)C(C)=C1C2(C)C` [CTX, Cabazitaxel], the IC50 with Fadu was 1.6 ± 0.4 nM; with SK-OV-3, 4.4 ± 0.9 nM; in the series on L-02 it was 7.8 ± 1.5 nM; in the series with HCT 116, 2.2 ± 1.1 nM; in the series on H520 it was 1.5 ± 0.7 nM; with HT-29, 7.4 ± 3.4 nM. For the same molecule, the concentration for half-maximal inhibition (IC50) stood at 2.5 ± 1.2 nM in the series with A549; 2.4 ± 1.3 nM with H460; 5.2 ± 1.7 nM with PC-3; 5.3 ± 1.9 nM with MCF-7; 6.1 ± 2.4 nM in the series on DU145. In “Hemolysis test” (4.7 nmol/mL, read-out: hemolysis rate), the hemolysis at 1.5 h, 4.7 nmol/mL worked out at 11 ± 3.2%. In “Hemolysis test” (75 nmol/mL, read-out: hemolysis rate), the hemolysis at 1.5 h, 75 nmol/mL was determined as 73.4 ± 5.8%. Further, the “tumor volume at study endpoint” value with MCF-7 xenografts amounted to 56 ± 12 mm³. In addition, the “cells arrested in G2/M” value in the series with DU145 cells (DU145, 1 nM) worked out at 16.5 ± 0.7%; with DU145 cells (DU145, 25 nM) it was 65.5 ± 19.9%. The tumor growth inhibition in series [1] (H22, 9.6 μmol/kg, three doses) was 30.8%. For the same molecule, the “total excretion of administered dose” value in “Excretion (urine, feces)” (in 24 h) is given as < 1 % of dose. Moreover, in series [2] (H22 mice, day 7 post-treatment, controls 4.46 ± 1.19), the “white blood cell count” value is reported as 1.55 ± 0.17 ×10^9/L. In addition, the body weight loss in series [2] (H22 tumor-bearing mice, 9.6 μmol/kg) is 11-16%.

Turning to `COC1C(=O)C2(C)C(OC)CC3OCC3(OC(C)=O)C2C(OC(=O)c2ccccc2)C2(O)CC(OC(=O)C(OC(=O)CN(CCN(CCN(CC(=O)O)CC(=O)O)CC(=O)O)CC(=O)O)C(NC(=O)OC(C)(C)C)c3ccccc3)C(C)=C1C2(C)C` (stereo not shown) [CTX-DTPA], the half-inhibitory concentration (IC50) in the series with Fadu worked out at 1.9 ± 0.6 nM; in the series with SK-OV-3, 5.4 ± 1.3 nM; in the series on L-02 it was 8.8 ± 3.6 nM; with HCT 116 it was 3.7 ± 1 nM; in the series with H520, 2 ± 1.3 nM; in the series with HT-29 it was 6.7 ± 2.9 nM. The IC50 with A549 was found to be 3 ± 1.1 nM; in the series with H460 it was 2.4 ± 1.1 nM; with PC-3 it was 4.1 ± 0.7 nM; in the series on MCF-7 it was 6.8 ± 2.4 nM; in the series on DU145 it was 5.1 ± 1.4 nM. Moreover, the hemolysis at 1.5 h, 300 nmol/mL in the series “Hemolysis test” (300 nmol/mL (maximum tested), read-out: hemolysis rate) was determined as 12.1 ± 9.2%. In “Hemolysis test” (concentrations up to 150 nmol/mL), this molecule yielded a hemolysis at 1.5 h of less than 2%. The “tumor volume at study endpoint” value in the series on MCF-7 xenografts turned out to be 111 ± 18 mm³. Further, the “cells arrested in G2/M” value in the series with DU145 cells (DU145, 1 nM) worked out at 16.4 ± 1.0%; in the series on DU145 cells (DU145, 25 nM), 58.9 ± 16.1%. The molecule further came in with a tumor growth inhibition in series [1] (H22, high dose 19.1 μmol/kg in saline, four doses) of 80.5%. In the series “Excretion (urine, feces)” (cumulative), the “urinary excretion of intact CTX-DTPA” value was 2191.14 ± 853.66 µg/kg. The same molecule came in with a renal excretion in “Excretion (urine, feces)” (within 24 hours) of 39.8 ± 12.7%. Also, the WBC counts in [2] (H22 mice, throughout treatment, across all dose groups (9.6 and 19.1 μmol/kg)) is given as 3.50-5.60 ×10^9/L.

In general, IC50 refers to the midpoint of a concentration-inhibition curve.
